The text below walks through data of patent publication US11891634B2, “PDE5A destabilizing domains” (The Board of Trustees of the Leland Stanford Junior …, priority 2017, dated 2024).

Assay [1] deals with NIH3T3 cells expressing AcGFP-PDE5A fusions. Description: Immunoblot analysis of AcGFP-PDE5A fusions (anti-XFP / anti-HA). The conditions noted are these: 10 μM Sildenafil or vehicle alone, 24 hours. The format is cell-based, mouse. The procedure: Identified PDE5A mutants were further validated using immunoblot analysis. NIH3T3 cells expressing AcGFP-PDE5A fusions were incubated with 10 μM Sildenafil or vehicle alone for 24 hours and the stability of PDE5A mutants was evaluated at the protein level. Cell lysates obtained from transduced NIH3T3 cells were immunoblotted using the anti-XFP antibody (1:3000) at 4° C. overnight. Samples were also immunoblotted with anti-GAPDH antibody (1:10000) to ensure uniform protein loading. Samples were then incubated with secondary anti-mouse antibody (1:3000) at room temperature for 1 hour, followed by visualization using appropriate methods. […] The difference in band intensity recapitulates the pattern from the FACS analysis.
A hemagglutinin (HA) sequence (SEQ ID NO. 74; encoded by SEQ ID NO. 75) was cloned in-frame at either the 5′- or 3′-ends of the PDE5A mutant sequence from PDE5AC (#41). The construct further included AcGFP (amino acids 1-239 of WT) at the N terminus (SEQ ID NO. 76, encoded by SEQ ID NO. 77) and an EF linker/EcoRI restriction site (GAATTC). […] The effect of the HA sequence on ligand dependent stabilization was evaluated via immunoblot analysis. […] As show in FIG. 3, HA-tagged fusion protein expression detected with either anti-XFP antibody or anti-HA antibody was nearly identical. […]

The next assay concerns AcGFP. In words: Comparison of N-terminal and C-terminal PDE5A derived DD (FACS). The conditions noted are these: 24 hours. The format is cell-based, human. The procedure:
The ability of PDE5A derived DDs to destabilize a protein of interest may depend on the position whether the DD is appended to the N terminus or the C terminus of the protein of interest. Mutant #2, and mutant #41 were appended either to the N terminus or C terminus of AcGFP and analyzed using the cell-based screening assay described previously to identify destabilizing domains. Cells were split into two treatment groups and incubated with either Sildenafil (10 μM) or vehicle alone for 24 hours. Cells that were mock transduced or transduced with the N terminal fused wild-type PDE5A or PDE5AN (#40) constructs were also included in the analysis. The results are presented in Table 8 where the C terminal PDE5A mutants are denoted as PDE5AC and N terminal PDE5A mutants are denoted as PDE5AN.
The stabilization ratio was calculated as the fold change in GFP intensity of the AcGFP-PDE5A construct in Sildenafil treated sample compared to vehicle alone treated sample.

Assay [2] relates to NIH3T3 cells expressing AcGFP-PDE5A variants. Description: Sildenafil dose dependency (FACS, percentage of max MFI). Conditions: Sildenafil 0.003 μM to 30 μM, read-out: half maximal effective concentration or EC50. The format is cell-based, mouse. The method, then:
NIH3T3 cells expressing AcGFP-PDE5A variants were incubated with varying concentrations of Sildenafil ranging from 0.003 μM to 30 μM. The stability of PDE5A mutants was measured using FACS and mean fluorescence intensity (MFI) of GFP was calculated. […] Percentage of max MFI (%) was calculated as the ratio of the MFI at a ligand concentration compared to the maximum MFI. Percentage of max MFI was plotted against the concentration of Sildenafil presented in a log scale. Titration curves of PDE5AC (#2) and PDE5AC (#41) are presented in FIG. 4A and FIG. 4B, respectively. […] The half maximal effective concentration or EC50 was approximately 0.5 μM for PDE5AC (#2) and 2 μM for PDE5AC (#41).

The subject of assay [3] is NIH3T3 cells expressing AcGFP-PDE5A fusions. Description: FACS analysis of C-terminal PDE5A mutants (AcGFP-PDE5A fusions), Sildenafil vs vehicle. The format is cell-based, mouse. The conditions noted are these: for Mean Fluorescence intensity: NIH3T3; for Stabilization ratio: Table 4, Sildenafil 10 μM vs vehicle alone. The procedure: The NIH3T3 cell line was cultured in DMEM supplemented with 10% heat-inactivated donor bovine serum (Invitrogen), 2 mM glutamine, 100 U/ml penicillin and 100 μg/ml streptomycin.
The ΦNX ecotropic packaging cell line was transfected using standard Lipofectamine 2000 protocols. Viral supernatants were harvested 48 hours, post transfection, filtered and concentrated 10-fold using Amicon Ultra centrifugal filter device with a 100kDa cutoff. NIH 3T3 cells were incubated with concentrated retroviral supernatants supplemented with 4 μg/ml polybrene for 4 hours at 37° C. Cells were washed once with PBS and cultured in growth media for 24-36 hours to allow for viral integration.
The transduced NIH3T3 cells were subjected to analysis using fluorescence-activated cell sorting (FACS) to screen the libraries of PDE5A mutants. 24 hours prior to analysis, transduced NIH3T3 cells were plated at 1×10^5 cells per well of a 12-well plate. Cells were removed from the plate using PBS and 2 mM EDTA, washed once with PBS, and resuspended in 200 μL, PBS. FACS analysis was performed on instruments at the Stanford Shared FACS Facility with 10,000 events represented.
To identify destabilizing domains that are responsive to the PDE5A ligand, Sildenafil, a cell-based screening assay was employed in which the fluorescence of green fluorescent protein derived from Aequorea coerulescens (AcGFP) served as an indicator of PDE5A stability. A library based on the PDE5A catalytic domain sequences was generated using error prone PCR and then cloned in-frame in front of AcGFP. A Moloney murine leukemia retroviral expression was used to stably integrate this library of PDE5A-AcGFP fusions into NIH-3T3 fibroblasts, and the transduced cells were subjected to three rounds of sorting using flow cytometry. In the first round, cells were treated with 10 μM of PDE5A ligand, Sildenafil for 16-24 before analysis. Fluorescent cells were collected and further cultured in the absence of ligand for 60 hours.
A library of AcGFP-PDE5A fusions i.e., C-terminal PDE5A mutants was screened using the cell-based screening assay described previously to identify C-terminal destabilizing domains. […] Identified candidates were subjected to further characterization by FACS. Cells were split into two treatment groups and incubated with either Sildenafil (10 μM) or vehicle alone for 24 hours. Cells that were mock transduced or transduced with the wild-type PDE5A construct were also included in the analysis. The stabilization ratio was calculated as the fold change in GFP intensity of the AcGFP-PDE5A construct in Sildenafil treated sample compared to vehicle alone treated sample. The results are presented in Table 2 where the C terminal PDE5A mutants are denoted as PDE5AC.
Residue D764 was identified as a mutational hotspot from sequence analysis. PDE5AC (#41) was engineered with either D764N or D764G mutation via site-directed mutagenesis. PDE5AC (#41) +D764N comprises the amino acid sequence of SEQ ID NO. 53 (encoded by SEQ ID NO. 54) and PDE5AC (#41) +D764G comprises the amino acid sequence of SEQ ID NO. 55 (encoded by SEQ ID NO. 56). AcGFP-PDE5A variants were evaluated for Sildenafil dependent stabilization via FACS as described previously. Results from FACS analysis are presented in Table 4 where the C terminal PDE5A mutants are denoted as PDE5AC. The stabilization ratio was calculated as the fold change in GFP intensity of the AcGFP-PDE5A construct in Sildenafil treated sample compared to vehicle alone treated sample.
Extended versions of human PDE5A that included residues in addition to catalytic domain (residues 535-860 of SEQ ID NO. 1) with Q589R polymorphism (SEQ ID NO. 11) were evaluated for use as C-terminal destabilizing domains. Three extended PDE5A sequences were tested that consisted of residues 535-875 of SEQ ID NO. 1 with Q589R polymorphism (SEQ ID NO. 13); residues 466-875 of SEQ ID NO. 1 with Q589R polymorphism (SEQ ID NO. 15); or residues 420-875 of SEQ ID NO. […]
(A flow cytometer gives signals particle by particle.)

The mark [4] stands for this setting: Table 2, Sildenafil (10 μM) +, 24 hours.
[5] abbreviates: Table 2, Sildenafil (10 μM) −, vehicle alone, 24 hours.
The mark [6] stands for this setting: Table 4 (D764 mutations), Sildenafil (10 μM) +.
Setting [7] is: Table 4 (D764 mutations), Sildenafil (10 μM) −.

As for “PDE5AC (#2): AcGFP fused to C-terminal DD 535-860 of PDE5A (Q589R, D687A, D764N, S815C), SEQ ID NO. 23”, in assay [1], the “Fusion protein expression / ligand dependent stabilization by immunoblot” value was “most drastic difference in the intensity of the bands”. For the same substance, in the assay on AcGFP, the “Mean FITC-A DMSO” value is on record as 1342. The “Mean FITC-A Sildenafil (10 μM)” value with AcGFP is listed as 5030. In assay [2], the EC50 was approximately 500 nM. The “Mean Fluorescence intensity” value in assay [3] (setting [4]) worked out at 6577; in assay [3] (setting [5]), 1023; in assay [3] (setting [6]) it was 3483; in assay [3] (setting [7]) it was 671. For the same substance, the Stabilization ratio in assay [3] is given as 5.2.

In the case of “PDE5AC (#41): AcGFP fused to C-terminal DD 535-860 of PDE5A (F561L, Q589R, K604E, D724N, L797F), SEQ ID NO. 27”, the “Fusion protein expression / ligand dependent stabilization by immunoblot” value in assay [1] is recorded as “most drastic difference in the intensity of the bands”. Moreover, in the assay with AcGFP, the “Mean FITC-A DMSO” value is recorded as 1443. In the assay with AcGFP, the “Mean FITC-A Sildenafil (10 μM)” value came out at 4620. Further, the EC50 in assay [2] is approximately 2000 nM. In addition, the “Mean Fluorescence intensity” value in assay [3] (setting [4]) amounted to 6115; in assay [3] (setting [5]) it was 1000; in assay [3] (setting [6]) it was 4647; in assay [3] (setting [7]), 734. The Stabilization ratio in assay [3] is 6.3.
